Measured values taken from the kinase profiling compilation of Christmann-Franck et al. (2016).
One block for each compound: values may come before it.

Legend:
Experiment in all cases: radiometric filter-binding kinase assay
[1] = biological target: MAPK14 (human) (UniProt Q16539)
[2] = biological target: JAK2 JH1 JH2 (human) (UniProt O60674)
[3] = biological target: NTRK1 (human) (UniProt P04629)
[4] = biological target: IRAK4 (human) (UniProt Q9NWZ3)
[5] = biological target: MAP3K1 (human) (UniProt Q13233)
Chain of MAP3K1 (human) (Q13233 whole entry, looked up): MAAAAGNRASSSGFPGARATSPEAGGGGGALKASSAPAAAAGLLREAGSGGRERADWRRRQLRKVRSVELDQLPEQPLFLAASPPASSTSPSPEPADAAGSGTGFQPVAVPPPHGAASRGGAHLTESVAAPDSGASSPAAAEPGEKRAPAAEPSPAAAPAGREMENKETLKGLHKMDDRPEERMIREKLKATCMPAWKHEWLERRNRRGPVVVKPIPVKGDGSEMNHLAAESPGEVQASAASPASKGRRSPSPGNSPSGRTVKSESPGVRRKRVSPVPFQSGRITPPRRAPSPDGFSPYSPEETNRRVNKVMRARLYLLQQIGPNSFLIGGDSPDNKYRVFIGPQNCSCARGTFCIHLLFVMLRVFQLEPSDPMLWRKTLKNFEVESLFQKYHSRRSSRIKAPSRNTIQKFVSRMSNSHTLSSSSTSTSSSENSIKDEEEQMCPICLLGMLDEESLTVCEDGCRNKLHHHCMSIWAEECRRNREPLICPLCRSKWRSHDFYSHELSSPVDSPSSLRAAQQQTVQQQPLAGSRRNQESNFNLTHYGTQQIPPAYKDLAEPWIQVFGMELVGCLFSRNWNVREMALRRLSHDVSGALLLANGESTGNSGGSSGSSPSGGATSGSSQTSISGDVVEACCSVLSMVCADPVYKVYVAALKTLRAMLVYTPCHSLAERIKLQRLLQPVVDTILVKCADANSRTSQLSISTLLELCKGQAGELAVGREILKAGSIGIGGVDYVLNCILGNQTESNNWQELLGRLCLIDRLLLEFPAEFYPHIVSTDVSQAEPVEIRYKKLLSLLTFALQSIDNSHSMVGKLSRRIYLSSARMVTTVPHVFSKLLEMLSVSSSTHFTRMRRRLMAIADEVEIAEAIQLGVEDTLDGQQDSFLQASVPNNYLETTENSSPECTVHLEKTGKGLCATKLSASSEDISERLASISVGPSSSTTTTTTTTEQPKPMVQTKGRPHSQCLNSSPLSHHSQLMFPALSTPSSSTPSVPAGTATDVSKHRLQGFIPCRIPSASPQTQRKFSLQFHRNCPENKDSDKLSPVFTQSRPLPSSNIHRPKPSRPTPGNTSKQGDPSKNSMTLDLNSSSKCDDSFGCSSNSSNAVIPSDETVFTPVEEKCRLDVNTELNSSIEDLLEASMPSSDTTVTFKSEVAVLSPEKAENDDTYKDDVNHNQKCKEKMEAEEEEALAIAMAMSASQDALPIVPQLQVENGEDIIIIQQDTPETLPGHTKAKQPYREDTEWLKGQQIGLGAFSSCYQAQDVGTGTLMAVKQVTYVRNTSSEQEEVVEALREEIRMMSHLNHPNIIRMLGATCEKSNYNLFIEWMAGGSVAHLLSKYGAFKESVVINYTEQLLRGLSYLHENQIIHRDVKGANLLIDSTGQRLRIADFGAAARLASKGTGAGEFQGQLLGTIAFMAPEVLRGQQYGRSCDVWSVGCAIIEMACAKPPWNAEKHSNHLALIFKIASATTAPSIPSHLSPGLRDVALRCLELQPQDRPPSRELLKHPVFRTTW

[6] = biological target: CSNK2A1 (human) (UniProt P68400)
[7] = biological target: RPS6KA5 KD1 KD2 (human) (UniProt O75582)
[8] = biological target: HIPK1 (human) (UniProt Q86Z02)
[9] = biological target: BTK (human) (UniProt Q06187)
[10] = biological target: PRKCA (human) (UniProt P17252)
[11] = biological target: MARK3 (human) (UniProt P27448)
[12] = biological target: MARK4 (human) (UniProt Q96L34)
Chain of MARK4 (human) (Q96L34 whole entry, looked up): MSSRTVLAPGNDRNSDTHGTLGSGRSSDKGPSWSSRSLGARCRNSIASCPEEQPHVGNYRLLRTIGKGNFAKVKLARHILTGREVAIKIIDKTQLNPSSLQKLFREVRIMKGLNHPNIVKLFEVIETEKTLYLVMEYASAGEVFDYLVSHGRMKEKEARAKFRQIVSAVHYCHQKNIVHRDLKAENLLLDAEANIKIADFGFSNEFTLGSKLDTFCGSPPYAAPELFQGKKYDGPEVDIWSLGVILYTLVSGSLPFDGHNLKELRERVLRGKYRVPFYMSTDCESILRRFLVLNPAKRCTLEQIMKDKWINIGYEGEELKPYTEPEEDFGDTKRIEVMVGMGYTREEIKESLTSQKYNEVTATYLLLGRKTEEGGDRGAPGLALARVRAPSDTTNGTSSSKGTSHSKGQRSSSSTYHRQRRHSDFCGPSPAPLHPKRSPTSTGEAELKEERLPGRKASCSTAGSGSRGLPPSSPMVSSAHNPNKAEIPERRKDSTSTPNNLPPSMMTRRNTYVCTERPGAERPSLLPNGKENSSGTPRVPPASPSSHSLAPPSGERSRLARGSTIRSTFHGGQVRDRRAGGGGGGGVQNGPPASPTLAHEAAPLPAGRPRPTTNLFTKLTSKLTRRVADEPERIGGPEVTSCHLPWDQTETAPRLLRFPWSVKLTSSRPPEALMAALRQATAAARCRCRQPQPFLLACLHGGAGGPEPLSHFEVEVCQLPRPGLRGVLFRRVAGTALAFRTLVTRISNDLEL

[13] = biological target: AURKA (human) (UniProt O14965)
[14] = biological target: NEK2 (human) (UniProt P51955)
[15] = biological target: INSR (human) (UniProt P06213)
[16] = biological target: CSNK1D (human) (UniProt P48730)
[17] = biological target: SRPK1 (human) (UniProt Q96SB4)
[18] = test system: RPS6KB1 (human), P23443 [T412E]
[19] = biological target: DYRK2 (human) (UniProt Q92630)
Chain of DYRK2 (human) (Q92630 whole entry, looked up): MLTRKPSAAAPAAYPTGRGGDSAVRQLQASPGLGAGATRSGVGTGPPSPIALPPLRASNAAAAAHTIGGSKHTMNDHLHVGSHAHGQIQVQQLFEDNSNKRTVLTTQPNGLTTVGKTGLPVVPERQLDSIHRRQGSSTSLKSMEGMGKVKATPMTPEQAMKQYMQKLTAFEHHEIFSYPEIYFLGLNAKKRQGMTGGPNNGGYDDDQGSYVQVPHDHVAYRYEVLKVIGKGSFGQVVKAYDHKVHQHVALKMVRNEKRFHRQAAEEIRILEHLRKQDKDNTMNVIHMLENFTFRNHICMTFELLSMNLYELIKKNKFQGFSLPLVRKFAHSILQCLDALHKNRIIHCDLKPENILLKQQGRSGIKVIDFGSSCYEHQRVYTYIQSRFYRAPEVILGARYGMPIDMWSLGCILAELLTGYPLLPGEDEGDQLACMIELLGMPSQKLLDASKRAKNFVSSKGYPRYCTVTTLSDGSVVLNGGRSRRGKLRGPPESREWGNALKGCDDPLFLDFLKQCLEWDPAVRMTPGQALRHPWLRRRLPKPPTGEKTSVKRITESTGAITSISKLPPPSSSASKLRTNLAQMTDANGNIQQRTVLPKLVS

[20] = biological target: MAPKAPK3 (human) (UniProt Q16644)
[21] = biological target: YES1 (human) (UniProt P07947)
[22] = biological target: STK11 CAB39 STRADA (human) (UniProt Q9Y376+Q7RTN6+Q15831)
[23] = biological target: RIPK2 (human) (UniProt O43353)
Chain of RIPK2 (human) (O43353 whole entry, looked up): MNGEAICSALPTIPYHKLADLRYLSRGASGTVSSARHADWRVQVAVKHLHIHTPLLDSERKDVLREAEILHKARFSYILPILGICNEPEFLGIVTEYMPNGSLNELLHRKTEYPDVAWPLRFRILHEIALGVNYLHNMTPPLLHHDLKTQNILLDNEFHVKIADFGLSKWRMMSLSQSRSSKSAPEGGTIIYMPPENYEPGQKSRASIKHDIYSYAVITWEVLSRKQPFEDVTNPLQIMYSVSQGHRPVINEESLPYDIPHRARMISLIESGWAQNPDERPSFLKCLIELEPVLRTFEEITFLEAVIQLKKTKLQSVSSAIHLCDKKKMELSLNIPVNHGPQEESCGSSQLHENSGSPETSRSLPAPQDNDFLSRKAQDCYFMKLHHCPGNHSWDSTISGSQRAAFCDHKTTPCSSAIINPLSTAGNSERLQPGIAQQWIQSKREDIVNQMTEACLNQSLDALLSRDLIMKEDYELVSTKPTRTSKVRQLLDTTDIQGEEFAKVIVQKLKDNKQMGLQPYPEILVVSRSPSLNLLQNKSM

[24] = biological target: CLK2 (human) (UniProt P49760)
[25] = biological target: MAPK15 (human) (UniProt Q8TD08)
[26] = biological target: MAPK1 (human) (UniProt P28482)
Chain of MAPK1 (human) (P28482 whole entry, looked up): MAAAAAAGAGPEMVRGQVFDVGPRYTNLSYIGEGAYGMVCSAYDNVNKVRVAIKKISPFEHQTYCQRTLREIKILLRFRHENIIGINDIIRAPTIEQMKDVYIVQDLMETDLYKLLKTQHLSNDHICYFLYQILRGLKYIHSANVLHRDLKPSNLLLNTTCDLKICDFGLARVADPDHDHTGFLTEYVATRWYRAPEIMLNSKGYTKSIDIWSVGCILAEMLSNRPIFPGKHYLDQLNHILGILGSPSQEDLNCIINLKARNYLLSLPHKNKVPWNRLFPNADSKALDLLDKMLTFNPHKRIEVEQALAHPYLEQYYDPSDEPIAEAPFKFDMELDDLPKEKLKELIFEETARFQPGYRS

[27] = biological target: RPS6KA1 KD1 KD2 (human) (UniProt Q15418)
[28] = biological target: HIPK2 (human) (UniProt Q9H2X6)
[29] = biological target: MAP3K9 (human) (UniProt P80192)
[30] = biological target: MKNK2 (human) (UniProt Q9HBH9)
[31] = biological target: NEK6 (human) (UniProt Q9HC98)
[32] = biological target: MAPK11 (human) (UniProt Q15759)
[33] = test system: AKT2 (human), P31751 [S474D]
[34] = biological target: FLT1 (human) (UniProt P17948)
[35] = biological target: INSRR (human) (UniProt P14616)

Chain of NTRK1 (human) (P04629 whole entry, looked up): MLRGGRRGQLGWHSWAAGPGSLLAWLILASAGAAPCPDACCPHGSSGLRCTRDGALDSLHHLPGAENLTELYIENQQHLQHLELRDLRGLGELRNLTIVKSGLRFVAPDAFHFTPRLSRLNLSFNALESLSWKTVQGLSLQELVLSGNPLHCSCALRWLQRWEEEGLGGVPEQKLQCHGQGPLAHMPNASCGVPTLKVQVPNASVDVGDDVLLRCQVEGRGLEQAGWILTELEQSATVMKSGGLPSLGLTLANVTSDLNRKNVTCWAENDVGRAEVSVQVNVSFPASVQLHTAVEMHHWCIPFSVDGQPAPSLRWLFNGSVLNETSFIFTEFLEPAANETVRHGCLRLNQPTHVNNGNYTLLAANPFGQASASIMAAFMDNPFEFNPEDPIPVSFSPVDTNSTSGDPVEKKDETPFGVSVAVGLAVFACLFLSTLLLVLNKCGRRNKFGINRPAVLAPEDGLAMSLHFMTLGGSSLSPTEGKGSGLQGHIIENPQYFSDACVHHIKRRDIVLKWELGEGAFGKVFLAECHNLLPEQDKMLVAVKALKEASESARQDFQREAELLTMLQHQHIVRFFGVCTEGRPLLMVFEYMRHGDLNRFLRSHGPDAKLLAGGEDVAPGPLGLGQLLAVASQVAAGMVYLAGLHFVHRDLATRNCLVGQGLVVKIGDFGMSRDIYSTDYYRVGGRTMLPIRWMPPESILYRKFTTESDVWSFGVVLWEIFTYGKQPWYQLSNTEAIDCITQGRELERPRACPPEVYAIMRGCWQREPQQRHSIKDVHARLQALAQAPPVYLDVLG
Chain of IRAK4 (human) (Q9NWZ3 whole entry, looked up): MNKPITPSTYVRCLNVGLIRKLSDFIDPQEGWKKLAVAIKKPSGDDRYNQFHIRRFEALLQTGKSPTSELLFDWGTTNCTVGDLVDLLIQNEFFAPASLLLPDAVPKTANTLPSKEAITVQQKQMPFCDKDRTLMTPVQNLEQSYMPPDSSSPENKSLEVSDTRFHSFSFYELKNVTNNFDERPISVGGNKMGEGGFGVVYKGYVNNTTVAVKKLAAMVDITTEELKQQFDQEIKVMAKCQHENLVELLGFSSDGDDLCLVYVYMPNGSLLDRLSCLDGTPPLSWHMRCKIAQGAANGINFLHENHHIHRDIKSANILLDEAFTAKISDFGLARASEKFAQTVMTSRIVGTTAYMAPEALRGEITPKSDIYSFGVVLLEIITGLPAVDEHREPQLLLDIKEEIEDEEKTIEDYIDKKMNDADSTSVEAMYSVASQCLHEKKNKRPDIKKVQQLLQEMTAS

residual activity ([1]; compound 10.0 µM): 97%
residual activity ([1]; compound 50.0 µM): 122%
residual activity ([1]; compound 100.0 µM): 90%
residual activity ([2]; compound 10.0 µM): 83%
residual activity ([2]; compound 100.0 µM): 32%
residual activity ([3]; compound 10.0 µM): 69%
residual activity ([3]; compound 100.0 µM): 28%
residual activity ([4]; compound 10.0 µM): 82%
residual activity ([4]; compound 100.0 µM): 34%
residual activity ([5]; compound 10.0 µM): 26%
residual activity ([5]; compound 100.0 µM): 7%
residual activity ([6]; compound 10.0 µM): 110%
residual activity ([6]; compound 50.0 µM): 95%
residual activity ([6]; compound 100.0 µM): 86%
residual activity ([7]; compound 10.0 µM): 69%
residual activity ([7]; compound 50.0 µM): 39%
residual activity ([7]; compound 100.0 µM): 42%
residual activity ([8]; compound 10.0 µM): 74%
residual activity ([8]; compound 100.0 µM): 35%
residual activity ([9]; compound 10.0 µM): 52%
residual activity ([9]; compound 100.0 µM): 10%
residual activity ([10]; compound 10.0 µM): 94%
residual activity ([10]; compound 50.0 µM): 60%
residual activity ([10]; compound 100.0 µM): 90%
residual activity ([11]; compound 10.0 µM): 78%
residual activity ([11]; compound 50.0 µM): 87%
residual activity ([11]; compound 100.0 µM): 38%
residual activity ([12]; compound 10.0 µM): 92%
residual activity ([12]; compound 100.0 µM): 45%
residual activity ([13]; compound 10.0 µM): 93%
residual activity ([13]; compound 100.0 µM): 64%
residual activity ([14]; compound 10.0 µM): 73%
residual activity ([14]; compound 50.0 µM): 52%
residual activity ([14]; compound 100.0 µM): 19%
residual activity ([15]; compound 10.0 µM): 103%
residual activity ([15]; compound 100.0 µM): 69%
residual activity ([16]; compound 10.0 µM): 88%
residual activity ([16]; compound 50.0 µM): 60%
residual activity ([16]; compound 100.0 µM): 88%
residual activity ([17]; compound 10.0 µM): 107%
residual activity ([17]; compound 50.0 µM): 42%
residual activity ([17]; compound 100.0 µM): 35%
residual activity ([18]; compound 10.0 µM): 78%
residual activity ([18]; compound 50.0 µM): 66%
residual activity ([18]; compound 100.0 µM): 38%
residual activity ([19]; compound 10.0 µM): 63%
residual activity ([19]; compound 50.0 µM): 84%
residual activity ([19]; compound 100.0 µM): 33%
residual activity ([20]; compound 10.0 µM): 57%
residual activity ([20]; compound 50.0 µM): 48%
residual activity ([20]; compound 100.0 µM): 8%
residual activity ([21]; compound 10.0 µM): 96%
residual activity ([21]; compound 50.0 µM): 13%
residual activity ([21]; compound 100.0 µM): 16%
residual activity ([22]; compound 10.0 µM): 86%
residual activity ([22]; compound 100.0 µM): 65%
residual activity ([23]; compound 10.0 µM): 110%
residual activity ([23]; compound 100.0 µM): 139%
residual activity ([24]; compound 10.0 µM): 81%
residual activity ([24]; compound 100.0 µM): 30%
residual activity ([26]; compound 10.0 µM): 103%
residual activity ([26]; compound 50.0 µM): 74%
residual activity ([26]; compound 100.0 µM): 49%
residual activity ([27]; compound 10.0 µM): 80%
residual activity ([27]; compound 50.0 µM): 9%
residual activity ([27]; compound 100.0 µM): 12%
residual activity ([28]; compound 10.0 µM): 99%
residual activity ([28]; compound 50.0 µM): 58%
residual activity ([28]; compound 100.0 µM): 19%
residual activity ([29]; compound 10.0 µM): 59%
residual activity ([29]; compound 100.0 µM): 18%
residual activity ([30]; compound 10.0 µM): 102%
residual activity ([30]; compound 50.0 µM): 80%
residual activity ([30]; compound 100.0 µM): 86%
residual activity ([31]; compound 10.0 µM): 104%
residual activity ([31]; compound 50.0 µM): 94%
residual activity ([31]; compound 100.0 µM): 137%
residual activity ([32]; compound 10.0 µM): 89%
residual activity ([32]; compound 50.0 µM): 84%
residual activity ([32]; compound 100.0 µM): 77%
residual activity ([33]; compound 10.0 µM): 56%
residual activity ([33]; compound 50.0 µM): 37%
residual activity ([33]; compound 100.0 µM): 11%
residual activity ([34]; compound 10.0 µM): 65%
residual activity ([34]; compound 100.0 µM): 11%
residual activity ([35]; compound 10.0 µM): 88%
residual activity ([35]; compound 50.0 µM): 90%
residual activity ([35]; compound 100.0 µM): 51%
SMILES: N#Cc1c(O)c2c(-c3ccc(-c4ccccc4O)cc3)csc2[nH]c1=O
residual activity ([25]; compound 10.0 µM): 81%
residual activity ([25]; compound 50.0 µM): 36%
residual activity ([25]; compound 100.0 µM): 24%

residual activity ([1]; compound 0.1 µM): 101%
residual activity ([1]; compound 1.0 µM): 89%
residual activity ([1]; compound 10.0 µM): 47%
residual activity ([2]; compound 0.1 µM): 84%
residual activity ([2]; compound 1.0 µM): 80%
residual activity ([2]; compound 10.0 µM): 30%
residual activity ([3]; compound 0.1 µM): 14%
residual activity ([3]; compound 1.0 µM): 19%
residual activity ([3]; compound 10.0 µM): 4%
residual activity ([4]; compound 0.1 µM): 5%
residual activity ([4]; compound 1.0 µM): 3%
residual activity ([4]; compound 10.0 µM): 2%
residual activity ([5]; compound 0.1 µM): 46%
residual activity ([5]; compound 1.0 µM): 35%
residual activity ([5]; compound 10.0 µM): 5%
residual activity ([6]; compound 0.1 µM): 119%
residual activity ([6]; compound 1.0 µM): 104%
residual activity ([6]; compound 10.0 µM): 85%
residual activity ([7]; compound 0.1 µM): 59%
residual activity ([7]; compound 1.0 µM): 51%
residual activity ([7]; compound 10.0 µM): 22%
residual activity ([8]; compound 0.1 µM): 45%
residual activity ([8]; compound 1.0 µM): 42%
residual activity ([8]; compound 10.0 µM): 5%
residual activity ([9]; compound 0.1 µM): 96%
residual activity ([9]; compound 1.0 µM): 53%
residual activity ([9]; compound 10.0 µM): 8%
residual activity ([10]; compound 0.1 µM): 41%
residual activity ([10]; compound 1.0 µM): 45%
residual activity ([10]; compound 10.0 µM): 11%
residual activity ([11]; compound 0.1 µM): 103%
residual activity ([11]; compound 1.0 µM): 89%
residual activity ([11]; compound 10.0 µM): 57%
residual activity ([12]; compound 0.1 µM): 101%
residual activity ([12]; compound 1.0 µM): 118%
residual activity ([12]; compound 10.0 µM): 43%
residual activity ([13]; compound 0.1 µM): 3%
residual activity ([13]; compound 1.0 µM): 3%
residual activity ([13]; compound 10.0 µM): 0%
residual activity ([14]; compound 0.1 µM): 108%
residual activity ([14]; compound 1.0 µM): 87%
residual activity ([14]; compound 10.0 µM): 71%
residual activity ([15]; compound 0.1 µM): 19%
residual activity ([15]; compound 1.0 µM): 14%
residual activity ([15]; compound 10.0 µM): 1%
residual activity ([16]; compound 0.1 µM): 99%
residual activity ([16]; compound 1.0 µM): 87%
residual activity ([16]; compound 10.0 µM): 68%
residual activity ([17]; compound 0.1 µM): 71%
residual activity ([17]; compound 1.0 µM): 59%
residual activity ([17]; compound 10.0 µM): 11%
residual activity ([18]; compound 0.1 µM): 95%
residual activity ([18]; compound 1.0 µM): 92%
residual activity ([18]; compound 10.0 µM): 11%
residual activity ([19]; compound 0.1 µM): 101%
residual activity ([19]; compound 1.0 µM): 87%
residual activity ([19]; compound 10.0 µM): 80%
residual activity ([20]; compound 0.1 µM): 91%
residual activity ([20]; compound 1.0 µM): 77%
residual activity ([20]; compound 10.0 µM): 85%
residual activity ([21]; compound 0.1 µM): 11%
residual activity ([21]; compound 1.0 µM): 11%
residual activity ([21]; compound 10.0 µM): 6%
residual activity ([22]; compound 0.1 µM): 64%
residual activity ([22]; compound 1.0 µM): 62%
residual activity ([22]; compound 10.0 µM): 8%
residual activity ([23]; compound 0.1 µM): 20%
residual activity ([23]; compound 1.0 µM): 17%
residual activity ([23]; compound 10.0 µM): 8%
residual activity ([24]; compound 0.1 µM): 3%
residual activity ([24]; compound 1.0 µM): 3%
residual activity ([24]; compound 10.0 µM): 1%
residual activity ([26]; compound 0.1 µM): 99%
residual activity ([26]; compound 1.0 µM): 103%
residual activity ([26]; compound 10.0 µM): 85%
residual activity ([27]; compound 0.1 µM): 31%
residual activity ([27]; compound 1.0 µM): 29%
residual activity ([27]; compound 10.0 µM): 6%
residual activity ([28]; compound 0.1 µM): 14%
residual activity ([28]; compound 1.0 µM): 13%
residual activity ([28]; compound 10.0 µM): 5%
residual activity ([29]; compound 0.1 µM): 78%
residual activity ([29]; compound 1.0 µM): 69%
residual activity ([29]; compound 10.0 µM): 17%
residual activity ([30]; compound 0.1 µM): 120%
residual activity ([30]; compound 1.0 µM): 92%
residual activity ([30]; compound 10.0 µM): 73%
residual activity ([31]; compound 0.1 µM): 103%
residual activity ([31]; compound 1.0 µM): 101%
residual activity ([31]; compound 10.0 µM): 85%
residual activity ([32]; compound 0.1 µM): 87%
residual activity ([32]; compound 1.0 µM): 76%
residual activity ([32]; compound 10.0 µM): 48%
residual activity ([33]; compound 0.1 µM): 80%
residual activity ([33]; compound 1.0 µM): 94%
residual activity ([33]; compound 10.0 µM): 46%
residual activity ([34]; compound 0.1 µM): 56%
residual activity ([34]; compound 1.0 µM): 52%
residual activity ([34]; compound 10.0 µM): 19%
residual activity ([35]; compound 0.1 µM): 69%
residual activity ([35]; compound 1.0 µM): 80%
residual activity ([35]; compound 10.0 µM): 52%
SMILES: Cc1ccc(Sc2cnc(Nc3cccc(Br)n3)s2)cc1C(=O)N1CCN(C(=O)CN)CC1
residual activity ([25]; compound 0.1 µM): 1%
residual activity ([25]; compound 1.0 µM): 1%
residual activity ([25]; compound 10.0 µM): 1%
